Marks after values point to notes of the source that are not given here. Starred links: 1 amine or outer side, 2 acyl side, 3 side chain; linkers in the order of their positions; H or OH if unused. Non-standard residues stand in square brackets, D forms with d. Residues, ends and D or L forms follow the SMILES beside them. Groups on a side chain read outwards from the residue. *: point of attachment. C20 diacid = O=C(O)CCCCCCCCCCCCCCCCCCC(=O)*; γGlu = O=C(O)[C@H](CCC(=O)[*:2])N[*:1]; NMeI = CC[C@H](C)[C@H](NC)C(=O)O; Nle = CCCC[C@H](N)C(=O)O; AEEA = NCCOCCOCC(=O)O; Aib = CC(C)(N)C(=O)O

We go through two compounds from patent EP4810052A2, “HCRHR2 SELECTIVE POLYPEPTIDES” (Gubra A/S, priority 2023, dated 2026).

A short description of data set [1]: Chemical stability of purified peptides (RP-UHPLC main peak purity loss). The data set is classed as physicochemical. The conditions noted are these: for Purity loss (RP-UPLC analysis) T14-T0 (%): 14 days; for Purity loss (RP-UPLC analysis) T28-T0 (%): 28 days; for Chemical stability at pH 7.5 after 14 days at 40°C (% degradation): pH 7.5, 14 days; for Chemical stability at pH 7.5 after 28 days at 40°C (% degradation): pH 7.5, 28 days. In short, it runs like this:
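Purity loss is the drop in RP-UHPLC main-peak area fraction (215 nm detection, C8 column at 50 °C) from time zero to day 14 and/or day 28 at 40 °C. Samples held roughly 1.0 mg/ml peptide in 50 mM phosphate, pH 7.5, with other pH targets also tested.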

The nature of another data set: PK in mice. The data set is classed as in vivo. The conditions noted are these: for half-life: read-out: T½ (converted). On the set-up: T½ / MRT: unit: h. The method, then:
Lean male NMRI/RjHan mice were obtained from JanVier (JanVier Labs, France) at 6 weeks of age. The animals were single housed under a 12/12 h dark-light cycle, light off at 3 PM. Room temperature was controlled to 22°C ± 1°C, with 60 % ± 20% humidity. Animals had ad libitum access to regular rodent chow (Altromin 1324, Brogaarden, Denmark) and tap water.
After 2 weeks of acclimatization, the animals were randomized into treatment groups (n=9 per group) based on body weight. Animals were dosed IV with one peptide and SC with another peptide (15 or 50 nmol/kg) Plasma samples were collected for PK analysis at times 0.17, 1, 3, 6, 24, 30, 48, 72 and 96 hours post dosing in a sparse sampling design with 3 mice per group per timepoint. Plasma samples were analyzed using LC-MSMS and PK parameters were estimated by Non-Compartmental Analysis (NCA).

The next data set can be described thus: PK in minipigs. The conditions noted are these: male, Göttingen, minipig, in vivo. Here is the method:
Pharmacokinetics studies were determined in male Göttingen minipigs from Ellegaard Göttingen Minipigs A/S. Animals were acclimatised for at least 7 days before placed on study. The minipigs had prior to study been surgically implanted with central venous catheters inserted which were used for blood sampling. Animals were housed under a 12/12 h dark-light cycle with ad libitum access to domestic water and animals were fed a commercially standard maintenance diet twice daily.
Test compounds where administrated either as a cassette or as a single compound. Test compounds were administrated by a single intravenous injection or short infusion (5-10 min) through the implanted catheter or a single subcutaneously injection. The subcutaneously injection was given in the mid neck between ear and scapula with a stopper on the needle, allowing 0.5 cm of the needle to be inserted.Plasma concentration-time profiles employing 12-16 sampling points were obtained from each animal. As an example, blood samples were collected on the following times: 0 (predose), 0.17, 0.33, 0.5, 1, 2, 5, 6, 24, 48, 72, 92, 168, 240 and 336 hrs post administration. Approximately 2 mL blood was drawn from the central catheter from each animal at each sampling point. Blood samples were taken in K2 or K3 EDTA tubes. Blood was kept on ice for maximum 30 min before centrifugation (10 min, 4°C, 2000 x g). Approximately 200 µL plasma samples was transferred to a Micronic tube and stored at -20° or lower.
Pharmacokinetics parameters were calculated by non-compartmental analysis (NCA) of the individual plasma concentrations-time profile from the animals. The log-linear trapezoidal method was used for estimation of AUC and AUMC. The terminal T½ was determined as In(2)/λz where λz is the first order rate constant as determined by the terminal log-linear part of the curve.
Plasma concentrations were measured by LC-MSMS using electrospray ionization and multiple reaction monitoring. Calibration standards and quality control (QC) samples were prepared in specie match matrix. 15 µL calibration standards, QC and study samples were extracted by protein precipitation using 60 µL methanol followed by addition of 45 µL milliQ water. Samples were shaken (800 rpm) at room temperature for 5 min before centrifugation (2570×g, 40 min, 4°C) and the supernatant was transferred to a LoBind PCR plate. Samples were analysed on a Thermo Triscend UHPLC system coupled to a Sciex API 6500+ mass spectrometer. Samples were subject to online SPE clean-up on a HLB column (1×50 mm, Waters) before loaded onto a Aeris Peptide XB C18 column (3.6 µm, 100 Å, 2×50 mm, Phenomenex) analytical column. The mobile phases consisted of acetonitrile and milliQ H2O both containing 0.1% V/V formic acid. The flow rate was 0.60 mL/min and the column was kept at room temperature.

Data set [2] can be described thus: Effect on acute food intake in mice. The class given is in vivo. To be noted: single subcutaneous dose. Here is the method: Male NMRI mice were obtained from JanVier (JanVier Labs, France) at 5 weeks of age. The animals were group-housed 4 mice pr. cage under a 12/12 h dark-light cycle, light off at 1 PM. Room temperature was controlled to 22°C ± 1°C, with 60 % ± 20% humidity. Animals had ad libitum access to regular rodent chow (Altromin 1324, Brogaarden, Denmark) and tap water.
Animals were transferred 5-7 days before the start of the study to a real-time food intake monitoring system, HM-2 system (MBRose, Denmark) to allow acclimatization to experimental conditions. As the animals were uniquely identified with microchips, each individual animal was identified by its microchip upon entry and exit from the food channel. Randomization of the mice for each study group (n=7-8) was based on body weight measured the day before the start of the study. A vehicle-treated group was included in each experiment. Six hours before the start of the dark phase, animals were fasted. One hour before the dark phase, animals were dosed once subcutaneously with test peptide. Food intake was reported hourly for a period of 72 hours. The percentage of food intake reduction was normalized to average food intake from the vehicle group. Statistical significance was evaluated using One-way analysis of variance with Dunnett's multiple comparison test. P < 0.05 was considered statistically significant.
Selected compounds were tested according to the general procedure on acute food intake in mice to determine the effect of a single subcutaneous dose on food intake in mice over 3 days.

Where [3] appears, read: male, NMRI/RjHan, in vivo, iv, Mouse, 15 nmol/kg i.v.
Where [4] appears, read: male, NMRI/RjHan, in vivo, sc, Mouse, 15 nmol/kg s.c.

For `CCCC[C@H](NC(=O)[C@@H](NC(=O)[C@H](CCC(=O)O)NC(=O)[C@H](C)NC(=O)[C@H](CC(N)=O)NC(=O)C(C)(C)NC(=O)[C@H](CCCCNC(=O)COCCOCCNC(=O)COCCOCCNC(=O)CC[C@H](NC(=O)CC[C@H](NC(=O)CCCCCCCCCCCCCCCCCCC(=O)O)C(=O)O)C(=O)O)NC(=O)[C@H](C)NC(=O)[C@H](CCC(N)=O)NC(=O)[C@H](CCC(=O)O)NC(=O)[C@H](CCCNC(=N)N)NC(=O)[C@H](C)NC(=O)[C@H](C)NC(=O)[C@H](CCCNC(=N)N)NC(=O)[C@H](C)NC(=O)[C@H](CCCNC(=N)N)NC(=O)[C@H](C)NC(=O)[C@H](CCC(N)=O)NC(=O)[C@H](CO)NC(=O)[C@H](CC(C)C)NC(=O)[C@H](CC(C)C)NC(=O)[C@@H](NC(=O)[C@H](CCC(N)=O)NC(=O)[C@H](CC(C)C)NC(=O)[C@H](CC(C)C)NC(=O)CNC(=O)[C@@H](NC(=O)[C@@H]1CCCN1C(=O)[C@@H](NC(=O)[C@H](CC(=O)O)NC(=O)[C@H](CC(C)C)NC(=O)[C@H](CO)NC(=O)[C@H](CC(C)C)NC(=O)[C@@H](NC(=O)[C@@H]1CCCN1)C(C)C)C(C)C)[C@@H](C)CC)[C@@H](C)CC)[C@@H](C)CC)C(=O)N[C@@H](C)C(=O)N[C@@H](CCC(=O)O)C(=O)N[C@H](C(N)=O)C(C)C` [SEQ ID NO: 238] (H-PVLSLDVPIGLLQILLSQARARAAREQAK([AEEA-AEEA-γGlu-γGlu-C20 diacid])[Aib]NAEI[Nle]AEV-NH2), the “Purity loss (RP-UPLC analysis) T14-T0 (%)” value is -1.0% in data set [1] (pH 7.0, 40°C); -3.1% in data set [1] (pH 7.5, 40°C); -5.1% in data set [1] (pH 8.0, 40°C). For the same compound, the “Purity loss (RP-UPLC analysis) T28-T0 (%)” value in data set [1] (pH 7.0, 40°C) was -1.2%; in data set [1] (pH 7.5, 40°C) it was -4.8%; in data set [1] (pH 8.0, 40°C) it was -9.8%. In addition, the “Chemical stability at pH 7.5 after 14 days at 40°C (% degradation)” value in data set [1] is -1.6%. The “Chemical stability at pH 7.5 after 28 days at 40°C (% degradation)” value in data set [1] is -4.6%. In “PK in mice” (Mouse), this compound displayed an MRT of 21.4. The T½ in the data set “PK in mice” (Mouse) was 19.6. The bioavailability amounted to 60% in “PK in mice” (male, NMRI, mouse, in vivo, sc) and 86% in “PK in minipigs” (sc). Besides, the clearance in the data set “PK in mice” (setting [3]) is 4.4 mL/h/kg. The half-life in “PK in mice” (setting [3]) was 19.6 h; in the data set “PK in mice” (setting [4]), 25.2 h; in “PK in minipigs” (iv, Pig, 5.8 nmol/kg i.v., read-out: T½ (converted)), 212 h. Besides, the Cmax in the data set “PK in mice” (setting [4]) was determined as 48 nM; in the data set “PK in minipigs” (sc, Pig, 6.0 nmol/kg s.c) it was 44 nM. For the same compound, the Tmax was determined as 24 h in the data set “PK in mice” (setting [4]) and 48 h in the data set “PK in minipigs” (sc, Pig, 6.0 nmol/kg s.c). Also, the “% FI compared to vehicle, 24 h post-dosing” value (from here on “% FI compared to vehicle”) is 29.73*** % in data set [2] (30 nmol/kg), 12.92*** % in data set [2] (100 nmol/kg) and 7.94*** % in data set [2] (300 nmol/kg).

With `CCCC[C@H](NC(=O)[C@@H](NC(=O)[C@H](CCC(=O)O)NC(=O)[C@H](C)NC(=O)[C@H](CC(N)=O)NC(=O)C(C)(C)NC(=O)[C@H](CCCCNC(=O)COCCOCCNC(=O)COCCOCCNC(=O)CC[C@H](NC(=O)CC[C@H](NC(=O)CCCCCCCCCCCCCCCCCCC(=O)O)C(=O)O)C(=O)O)NC(=O)[C@H](C)NC(=O)[C@H](CCC(N)=O)NC(=O)[C@H](CCC(=O)O)NC(=O)[C@H](CCCNC(=N)N)NC(=O)[C@H](C)NC(=O)[C@H](C)NC(=O)[C@H](CCCNC(=N)N)NC(=O)[C@H](C)NC(=O)[C@H](CCCNC(=N)N)NC(=O)[C@H](C)NC(=O)[C@H](CCC(N)=O)NC(=O)[C@H](CO)NC(=O)[C@H](CC(C)C)NC(=O)[C@H](CC(C)C)NC(=O)[C@@H](NC(=O)[C@H](CCC(N)=O)NC(=O)[C@H](CC(C)C)NC(=O)[C@H](CC(C)C)NC(=O)CNC(=O)[C@@H](NC(=O)[C@@H]1CCCN1C(=O)[C@@H](NC(=O)[C@H](CC(=O)O)NC(=O)[C@H](CC(C)C)NC(=O)[C@H](CO)NC(=O)[C@H](CC(C)C)NC(=O)[C@@H](NC(=O)[C@@H](NC)[C@@H](C)CC)C(C)C)C(C)C)[C@@H](C)CC)[C@@H](C)CC)[C@@H](C)CC)C(=O)N[C@@H](C)C(=O)N[C@@H](CCC(=O)O)C(=O)N[C@H](C(N)=O)C(C)C` [compound 132] (H-[NMeI]VLSLDVPIGLLQILLSQARARAAREQAK([AEEA-AEEA-γGlu-γGlu-C20 diacid])[Aib]NAEI[Nle]AEV-NH2), in data set [1], the “Chemical stability at pH 7.5 after 14 days at 40°C (% degradation)” value is -1.6% and the “Chemical stability at pH 7.5 after 28 days at 40°C (% degradation)” value is -1.3%. Also, in the data set “PK in mice” (Mouse), the MRT worked out at 16 and the T½ stood at 11.2. For the same compound, in data set [2] (30 nmol/kg), the “% FI compared to vehicle” value is 46.64*** %. Further, the “% FI compared to vehicle” value in data set [2] (100 nmol/kg) is recorded as 18.5*** %. Besides, the “% FI compared to vehicle” value in data set [2] (300 nmol/kg) was 20.04*** %.

One may read the bioavailability as the share of a dose that reaches the circulation, judged against a reference dose that is usually intravenous. In general, clearance refers to the volume of plasma or blood freed of the substance per unit of time. The Cmax is the highest concentration seen after dosing. For orientation: Tmax means the time at which the peak concentration occurs.
